# Results taken from a melting point compilation (Tetko et al.; mined from patent text by program, amines drawn as free bases though some values may be those of a salt).
row,SMILES,melting point
1,CCCCCCCCC(SCCCCCC)C(=O)Nc1c(SC)cc(SC)c2ncccc12 (stereo not drawn),91 to 93 °C
2,CCCCn1c(=O)n(C(C)C)c(=O)c2[nH]c(C)nc21,172 to 173 °C
3,Cc1[nH]cnc1CSCCNC(=S)NC#N,158 to 161 °C
4,O=[N+]([O-])c1cccnc1Nc1cc(F)ccc1F,150 to 152 °C
5,COCCOc1c(C)cc(-c2nc3cc(OC)cc(OC)c3c(=O)[nH]2)cc1C,201 to 202 °C
6,CCCCCCCCC(=O)N1C(=O)CCC1=O,59 to 60 °C
7,CC(C)(C)c1cc(C=O)c(O)c(S(C)(=O)=O)c1,134 to 136 °C
8,COc1ccc(N2CN(C)CNC2=S)cc1,194 °C
9,CCCN(c1nc(-c2ccc(OC)cc2Cl)c(C)s1)c1cc([N+](=O)[O-])ccc1OC,97 °C
10,CCCn1c(=O)c2c(nc(C=Cc3ccc(C(=O)OC)cc3OC)n2C)n(CCC)c1=O,198 to 200 °C
11,CCC1CCn2c(nc(-c3ccncn3)cc2=O)N1 (stereo not drawn),226 to 228 °C
12,CC(C)c1nsc(N=C(F)N(C)C)c1C#N,100 to 102 °C
13,CC(C)c1cc2c(cc1O)C(C)(C)CCC2(C)C,79 to 80 °C
14,N#Cc1cnc2sccc2c1Cl,100 to 103 °C
15,C#CC(O)c1csc(C)n1 (stereo not drawn),94 °C
16,CC(=O)Oc1ccc(CC2CCCN2C)cc1OC(C)=O (stereo not drawn),44 to 45 °C
17,NNc1c(S(=O)(=O)C(F)(F)F)cnn1-c1c(Cl)cc(C(F)(F)F)cc1Cl,154 °C
18,Cc1nn(-c2c(Cl)cc(C(F)(F)F)cc2Cl)c(N)c1SC#N,134 °C
19,Cc1cccc(C2C(C#N)=C(C3CC3)Nc3n[nH]cc32)c1[N+](=O)[O-] (stereo not drawn),265 °C
20,COc1ccc2c(C)c([N+](=O)[O-])ccc2c1C(F)(F)F,141 to 142 °C
21,CN(C)CCOc1c2c(nc3ccccc13)C(C)(C)OC2,92 to 93 °C
22,CCCCc1nc(N)cc(=O)[nH]1,242 to 245 °C
23,CCOC(=O)CCC(C)C1CC=C2C3=C(CCC21C)C1(C)CCC(O)C(C)(C)C1CC3 (stereo not drawn),122 to 124 °C
24,Cc1nnc(CNC(=O)CCl)n1-c1ccc(Cl)cc1C(=O)c1ccccc1,140 to 141 °C
25,CSc1ncc(Cc2cccnc2)c(=O)[nH]1,247 to 249 °C
26,CCN1CNS(=O)(=O)c2cc(Br)ccc21,122 to 124 °C
27,CCOC(=O)c1cc(C#N)cc(C(F)(F)F)n1,71.5 °C
28,CCOC(=O)c1cc2n(C)c3ccc(C)cc3c(=O)n2n1,250 to 252 °C
29,CCCCCCCc1ccc(C2CC(CCCCCC)C(=O)O2)cc1 (stereo not drawn),45.9 to 48 °C
30,CCOC(=O)c1c(C(F)(F)F)nc(C(F)(F)F)c(C)c1OCC,72.5 to 74 °C

# More lines, now with the values ahead:
row,melting point,SMILES
1,112 to 114 °C,O=C(c1ccccc1)c1ccccc1NC(=O)C(Cl)Cl
2,210 to 211 °C,Cc1ccc(C(=O)Nc2c(NC(=O)CN3CCN(CCO)CC3)ccc3c2C(=O)c2ccccc2C3=O)cc1
3,114 to 116 °C,CCOCCN(CC1=CCC(NC(C)=O)(Oc2ccccc2)C=C1)C(=O)C(Cl)Cl (stereo not drawn)
4,114 to 117 °C,CC(=O)c1ccc(-c2ccc(Cl)c(Cl)c2)o1
5,85 to 87 °C,CS(=O)(=O)Nc1cc2c(cc1Oc1ccc(F)cc1F)CCC2
6,265 to 266 °C,CCOC(=O)c1cn2c3c(c(F)c(F)cc3c1=O)OCC2
7,198 to 201 °C,NC(=O)N1CCN(CC(O)COc2ccc(O)cc2)CC1 (stereo not drawn)
8,162 °C,COC(=O)c1nc(C)c(-c2ccccc2)nc1N
9,115 to 116 °C,N#Cc1ccc(-c2ncc(C(F)(F)F)cc2Cl)cc1OCC(=O)C1CC1
10,229 to 230 °C,Cc1c(NC(=O)CC(C)(C)C)c(C)c2c(-c3ccc(C(C)C)cc3)coc2c1C
11,91 to 93 °C,CCOC(=O)C=C1c2ccccc2C=C(OC)c2sccc21
12,123 °C,N#CCC(O)(c1ccc(Cl)cc1)c1ccc(-c2ccc(Cl)cc2)cc1 (stereo not drawn)
13,191 °C,O=C(Nc1ccc(Cl)cc1)NS(=O)(=O)c1ccc2c(c1)OCCO2
14,184 to 185 °C,O=C(OCC12CCCN(CC1)C2)c1c[nH]c2ccccc12 (stereo not drawn)
15,113 to 114 °C,CCCCC(=O)SCC(Cc1ccccc1)C(=O)Nc1cccc(C(=O)O)c1C (stereo not drawn)
16,147 to 148 °C,Cc1ccc(-c2ccccc2NC(=N)N(C)C)cc1
17,166 °C,CC(=O)OC1CSC(Oc2cccnc2-c2cccs2)C(OC(C)=O)C1OC(C)=O (stereo not drawn)
18,90 to 92 °C,CCOC(=O)[C@@H](NC(=O)c1cc(-c2ncc(C(F)(F)F)cc2Cl)ccc1Cl)C(C)C
19,97 to 101 °C,CCCN1CCN(CCCOc2cc3ncc(C#N)c(Nc4cc(OC)c(Cl)cc4Cl)c3cc2OC)CC1
20,150 to 151 °C,COc1cc2c(cc1C(F)(F)F)N(C(=O)Nc1cc(-c3ccccc3)cc(-c3cccnc3)c1)CC2
21,283 to 284 °C,O=C(O)c1ccc(C(=O)Nc2cc3c4c(c2)CCCC4CCC3)cc1
22,177 to 178 °C,COc1ccc2cccc(N3CCN(CCC4CC(=O)Nc5ccccc54)CC3)c2c1 (stereo not drawn)

row,melting point,SMILES
1,273 to 275 °C,O=c1c2c(Cc3ccccc3Cl)n[nH]c2c2cccnc2n1-c1cccc(OC(F)(F)F)c1
2,142 to 144 °C,CC(=O)ON=C1CCCN(C(=O)c2ccc(NC(=O)c3ccccc3Cl)cc2)c2ccccc21
3,> 320 °C,CN(C)c1ccc2c(c1)O/C(=C1/Oc3cc(N(C)C)ccc3C1=O)C2=O
4,135 to 137 °C,COc1cc(C(C)=O)ccc1OCCCN1CCN(n2ncc3ccc(F)cc32)CC1
5,96 °C,Nc1nn(CCN2CCCCC2)cc1-c1ccccc1
6,36 °C,COC(=O)c1cccc(Cl)c1N
7,132 °C,O=C(O)CC1c2ccccc2CCN1S(=O)(=O)c1ccc2ccccc2c1 (stereo not drawn)
8,56 to 57 °C,C=CCOc1ccc(OCc2ccccc2)cc1
9,170 °C,O=c1c(CCCc2ccccn2)cc2cccnc2n1-c1ccc2nsnc2c1
10,270 to 271 °C,Cc1ccc(C(=O)Nc2c(NC(=O)CN3CCN(c4ccccc4)CC3)ccc3c2C(=O)c2ccccc2C3=O)cc1
11,270 to 273 °C,O=C(O)C1=Cc2cc(OCc3ccc(F)cc3)ccc2S(=O)(=O)CC1
12,139 °C,CCOc1ccc(-c2ccc(Br)cc2)cc1
13,187 to 188 °C,O=C(O)c1ccc(F)cc1NC(=O)c1ccccc1C(=O)O
14,201 to 210 °C,COc1ccc(S(=O)(=O)Nc2cc(F)cc3c2Nc2ccc(O)cc2CO3)cc1
15,202 to 204 °C,COc1nc(-c2ccc(F)cc2)c(-c2ccc(S(C)(=O)=O)cc2)cc1C#N
16,130 to 132 °C,CCCCCS(=O)(=O)NC(=O)/C=C/c1cc(OCCOC)nn1Cc1ccc(C(F)(F)F)cc1Cl
17,238 to 241 °C,O=C1c2ccccc2C(=O)N1CCSc1nccc(NC(=S)NCC(F)(F)F)n1
18,263 to 265 °C,CC(=N)Nc1cccc(C(=N)N)c1
19,113 to 114 °C,CC(=O)Oc1cc(S(=O)(=O)Oc2ccc(C(=O)c3c(Cc4ccc(Br)cc4)sc(C)c3C)cc2C2CCCC2)ccc1C(=O)O
20,229 to 230 °C,Cc1nccn1Cc1ccc(NC(=O)C(F)(F)F)cc1C(F)(F)F
21,232 to 235 °C,Cc1cc2c(-c3cccc(/C=C/C=O)c3)c(CC(=O)Nc3ccc(F)cc3C(F)(F)F)c(=O)oc2cc1Cl
